Results published in patent US20240150347A1, “INHIBITING CYCLIC AMP-RESPONSIVE ELEMENT-BINDING PROTEIN (CREB) BINDING PROTEIN (CBP)” (FORMATherapeutics,Inc., priority 2020, published 2024).
Counter-ions that a name gives are not always drawn.

Assays:
[1] = tested on: human kinases and disease-relevant mutant variants; test: KINOMEscan screen for kinase inhibition; type: binding
panel of 10 bromodomains = test: AlphaScreen panel of 10 BRD; type: binding; conditions: 10 BRD of various branches of the bromodomain tree
[2] = Dynamic vapor sorption (hygroscopicity); type: physicochemical; conditions: relative humidity of up to 80%, dynamic vapor sorption isotherm plots
Description: Dynamic Vapor Sorption (DVS) data were collected with a SMS DVS Intrinsic from Surface Measurement Systems.

## COC(=O)N1c2ccc3c(nc([C@H](O)c4cc(F)ccc4OC)n3[C@@H]3CCC[C@@H](C(=O)O)C3)c2CC[C@@H]1C [Compound 1, (1R,3R)-3-[(7S)-2-[(R)-(5-fluoro-2-methoxyphenyl)(hydroxy)methyl]-6-(methoxycarbonyl)-7-methyl-3H,6H,7H,8H,9H-imidazo[4,5-f]quinolin-3-yl]cyclohexane-1-carboxylic acid]
[1]
  binding affinity for human kinases and disease-relevant mutant variants: no to low binding affinity
Panel of 10 bromodomains
  activity against panel of 10 bromodomains: inactive against 8

## COC(=O)N1c2ccc3c(nc([C@H](O)c4cc(F)ccc4OC)n3[C@@H]3CCC[C@@H](C(=O)O)C3)c2CC[C@@H]1C [HCl type A salt, (1R,3R)-3-((S)-2-((R)-(5-fluoro-2-methoxyphenyl)(hydroxy)methyl)-6-(methoxycarbonyl)-7-methyl-6,7,8,9-tetrahydro-3H-imidazo [4,5-f]quinolin-3-yl)cyclohexane-1-carboxylic acid]
[2]
  water uptake: 6.3%

## COC(=O)N1c2ccc3c(nc([C@H](O)c4cc(F)ccc4OC)n3[C@@H]3CCC[C@@H](C(=O)O)C3)c2CC[C@@H]1C [type B p-toluenesulfonic acid addition salt]
[2]
  water uptake: 2.1%
